Laboratory results taken from patent US10287530B2, “Surfactants based on monounsaturated fatty alcohol derivatives” (priority 2013, dated 2019).

Assay: Agricultural dispersant screening: sedimentation of milled pesticide powder
Assay type: physicochemical
Set-up: key to Sedimentation results at 1 h: Trace of sediment=“Tr”
Settings: for Rating: overall, versus DF-200 and DF-500 controls
Method: The potential of a composition for use as an agricultural dispersant is evaluated by its performance with five typical pesticide active ingredients: atrazine, chlorothalonil, diuron, imidacloprid and tebuconazole. The performance of each dispersant sample is evaluated in comparison with two standard Stepsperse® dispersants: DF-200 and DF-500 (products of Stepan Company).
A screening sample is prepared as shown below for each active. Wetting agents, clays, and various additives are included or excluded from the screening process as needed. The weight percent of pesticide (“technical material”) in the formulation depends on the desired active level of the final product. The active level chosen is similar to other products on the market. If this is a new active ingredient, then the highest active level is used.
Samples are evaluated in waters of varying hardness, in this case 342 ppm and 1000 ppm. The initial evaluations are performed at ambient temperature. Other temperatures can be evaluated as desired. The 342 ppm water is made by dissolving anhydrous calcium chloride (0.304 g) and magnesium chloride hexahydrate (0.139 g) in deionized water and diluting to 1 L. The 1000 ppm water is made similarly using 0.89 g of calcium chloride and 0.40 g of magnesium chloride hexahydrate.
Technical material (60-92.5 wt. %), anionic wetting agent (0.5-1.0 wt. %), silica (0.5-1.0 wt. %), and clay (balance) are blended in a suitable container. The blend is milled to a particle size of at least a d(90) of <20μ using a hammer and air/jet mills as needed. Test dispersant (0.1 g) is added to test water (50 mL) in a beaker and stirred 1-2 min. Milled powder containing the technical material (1.0 g) is added to the dispersant solution and stirred until all powder is wet (2-5 min.). The mixture is transferred to a 100-mL cylinder using additional test water for rinsing the beaker and is then diluted to volume. The cylinder is stoppered and inverted ten times, then allowed to stand. Visual inspection is performed at t=0.5, 1.0, 2.0, and 24 hours, and the amount of sediment observed (in mL) is recorded. Trace of sediment=“Tr” (see Table 5).

[1] = Chlorothalonil, test water 342 ppm
[2] = Chlorothalonil, test water 1000 ppm
[3] = Imidacloprid, test water 342 ppm
[4] = Imidacloprid, test water 1000 ppm
[5] = Tebuconazole, test water 342 ppm
[6] = Tebuconazole, test water 1000 ppm

Substance	Sedimentation results at 1 h (Atrazine, test water 342 ppm)	Sedimentation results at 24 h (Atrazine, test water 342 ppm)	Sedimentation results at 1 h (Atrazine, test water 1000 ppm)	Sedimentation results at 24 h (Atrazine, test water 1000 ppm)	Sedimentation results at 1 h [1]	Sedimentation results at 24 h [1]	Sedimentation results at 1 h [2]	Sedimentation results at 24 h [2]	Sedimentation results at 1 h (Diuron, test water 342 ppm)	Sedimentation results at 24 h (Diuron, test water 342 ppm)	Sedimentation results at 1 h (Diuron, test water 1000 ppm)	Sedimentation results at 24 h (Diuron, test water 1000 ppm)	Sedimentation results at 1 h [3]	Sedimentation results at 24 h [3]	Sedimentation results at 1 h [4]	Sedimentation results at 24 h [4]	Sedimentation results at 1 h [5]	Sedimentation results at 24 h [5]	Rating	also measured
Undecylenic Alcohol, 1EO Ether Sulfate, Sodium Salt [Unsat. C11 alcohol 1EO Na sulfate]	Tr	1 mL	0.5 mL	1 mL	Tr	1 mL	0.5 mL	1 mL	0.5 mL	1 mL	1 mL	2 mL	3 mL	4 mL	3, 3 mL	3, 3 mL	Tr	2 mL	equal	Sedimentation observation (flock) [6]: flocked
1-Undecanol, 1EO Ether Sulfate, Sodium Salt [Sat. C11 alcohol 1EO Na sulfate]	Tr	1 mL	0.5 mL	1 mL	0.5 mL	1 mL	0.5 mL	2 mL	0.5 mL	1 mL	1 mL	2 mL	1 mL	2 mL	2.5 mL	2 mL	Tr	0.5 mL	equal	Sedimentation results at 1 h [6]: 5 mL; Sedimentation results at 24 h [6]: 3 mL
